From patent publication US20240316017A1, “NOVEL PYRIDINE DERIVATIVE COMPOUND AS RON INHIBITOR” (LG CHEM, LTD., priority 2021, published 2024)

Experiments:
[1] = biological target: cMET (Homo sapiens, UniProt P08581); assay: Evaluation of inhibitory activity against MET (TR-FRET kinase assay); type: biochemical; conditions: cMET protein, TK peptide substrate
Method: In addition, in order to measure the enzyme activity inhibition for cMET, the evaluation was performed in the same manner as the enzyme activity inhibition measurement experiment for RON.
(§1) Specifically, the compound was prepared to a concentration of 1 mM in 100% DMSO and was diluted 10 times in a stepwise manner through 3-fold dilution. The compound (2 ul) diluted in a stepwise manner was added to a 96-well-plate containing 48 ul of a 1× kinase reaction buffer (50 mM HEPES (pH 7.4), 0.05% BSA, 0.005% Tween-20, 1 mM DTT, 0.5 mM MnCl2, 20 mM MgCl2).
The cMET protein was diluted to a concentration of 263 nM in a cMET storage buffer (50 mM Tris-HCl (pH 7.5), 150 mM NaCl, 0.05% Brij35, 1 mM DTT, 10% Glycerol), and then diluted again to a concentration of 2 nM in a 1× kinase reaction buffer. As a substrate cocktail, a MET-specific substrate mixed solution (5 uM TK peptide, 10 mM ATP) was prepared at a concentration 2 times the final reaction concentration.
(§2) Thereafter, a 384-well-plate was prepared, and 2.5 μl of each of the diluted compounds of Examples was added to a corresponding well of experimental group wells, and 2.5 μl of a 4% DMSO solution was dispensed into high control wells and low control wells.
(§3) Thereafter, 2.5 μL of 2 nM cMET was dispensed into each of the high control wells and the experimental group wells, and 2.5 μL of the 1×kinase reaction buffer was added to the low control wells, and all the wells were centrifuged at room temperature for 40 seconds at 1,000 RPM, and then incubated at room temperature for 20-30 minutes. Then, 5 uL of the substrate cocktail (2×) was dispensed into each well, and all the wells were centrifuged at room temperature for 40 seconds at 1,000 RPM, and then incubated at room temperature for 60 minutes. Thereafter, 5 uL of 90 mM EDTA was added to each well to terminate the reaction, and all the wells were then incubated again at room temperature for 5 minutes. Thereafter, 5 uL of a 4× phosphotyrosine antibody (Perkin Elmer) containing europium was added to each well, and all the wells were then incubated at room temperature for 60 minutes. After the incubation, the 384-well-plate was read with the Vison plate reader. In this case, the excitation wavelength was 340 nm, and the emission wavelength was 620 nm and 665 nm. The IC50 value of each compound of Examples was derived using the GraphPd Prism7 program.

[2] = biological target: RON (Homo sapiens, UniProt Q04912); assay: Evaluation of inhibitory activity against RON (TR-FRET kinase assay); type: biochemical; conditions: RON protein, ULight-labeled Poly GT substrate
Chain of RON (Q04912 25-1400, species assumed): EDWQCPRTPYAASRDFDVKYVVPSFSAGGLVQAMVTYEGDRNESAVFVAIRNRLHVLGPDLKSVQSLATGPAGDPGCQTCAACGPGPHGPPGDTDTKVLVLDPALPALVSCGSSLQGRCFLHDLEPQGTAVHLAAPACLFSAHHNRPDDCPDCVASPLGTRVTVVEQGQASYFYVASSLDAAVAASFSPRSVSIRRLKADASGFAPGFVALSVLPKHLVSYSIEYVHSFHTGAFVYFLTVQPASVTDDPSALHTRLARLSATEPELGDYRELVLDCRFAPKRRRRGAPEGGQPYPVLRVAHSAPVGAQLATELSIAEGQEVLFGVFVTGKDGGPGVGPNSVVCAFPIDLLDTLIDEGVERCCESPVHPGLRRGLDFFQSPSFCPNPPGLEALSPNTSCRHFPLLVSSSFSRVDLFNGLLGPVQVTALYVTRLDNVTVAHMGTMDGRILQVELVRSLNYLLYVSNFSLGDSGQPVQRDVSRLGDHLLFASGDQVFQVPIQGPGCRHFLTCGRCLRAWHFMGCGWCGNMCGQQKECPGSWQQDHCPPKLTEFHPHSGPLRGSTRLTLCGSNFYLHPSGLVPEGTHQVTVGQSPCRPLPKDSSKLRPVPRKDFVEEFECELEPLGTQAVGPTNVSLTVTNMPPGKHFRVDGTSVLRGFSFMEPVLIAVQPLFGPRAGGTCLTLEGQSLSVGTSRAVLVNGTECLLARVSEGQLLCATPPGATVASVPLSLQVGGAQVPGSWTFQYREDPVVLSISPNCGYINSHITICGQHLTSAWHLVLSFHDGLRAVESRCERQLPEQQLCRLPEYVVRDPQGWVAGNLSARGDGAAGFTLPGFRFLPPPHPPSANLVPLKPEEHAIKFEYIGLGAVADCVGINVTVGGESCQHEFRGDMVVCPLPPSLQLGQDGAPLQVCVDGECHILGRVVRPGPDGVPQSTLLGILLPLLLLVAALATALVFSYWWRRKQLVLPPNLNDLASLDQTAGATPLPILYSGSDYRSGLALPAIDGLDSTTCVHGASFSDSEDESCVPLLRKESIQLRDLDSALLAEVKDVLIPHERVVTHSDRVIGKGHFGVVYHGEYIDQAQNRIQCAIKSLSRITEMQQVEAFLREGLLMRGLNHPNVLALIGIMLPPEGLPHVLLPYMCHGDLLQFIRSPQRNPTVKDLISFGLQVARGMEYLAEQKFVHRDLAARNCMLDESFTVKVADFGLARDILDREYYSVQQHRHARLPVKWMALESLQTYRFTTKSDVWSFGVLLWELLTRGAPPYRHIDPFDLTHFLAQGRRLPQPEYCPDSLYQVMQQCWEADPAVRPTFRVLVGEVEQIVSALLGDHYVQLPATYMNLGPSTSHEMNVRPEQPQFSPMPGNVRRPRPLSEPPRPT
Method: In order to measure the inhibitory activity of each of the compounds of Examples against RON, the IC50 of each of the compounds was measured using Time-resolved fluorescence energy transfer (TR-FRET).
as §1, with “7.4), 0.01%” for “7.4), 0.05% BSA, 0.005%”, “Tween-20, 5” for “Tween-20, 1”, “mM Na3VO4, 2 mM EGTA, 10” for “mM MnCl2, 20”
The RON protein was diluted to a concentration of 49.3 nM in a RON storage buffer (50 mM Tris-HCl (pH 7.5), 150 mM NaCl, 0.5 mM EDTA, 0.02% Triton X-100), and then diluted again to a concentration of 0.4 nM in a 1×kinase reaction buffer. As a substrate cocktail, a RON-specific substrate mixed solution (40 uM ULight-labeled Poly GT, 100 nM ATP) was prepared at a concentration 2 times the final reaction concentration.
as §2
as §3, with “of 0.4” for “of 2”, “nM RON” for “nM cMET”, “the 1× kinase” for “the 1×kinase”, “of 30” for “of 90”

Chain of cMET (P08581 25-1390): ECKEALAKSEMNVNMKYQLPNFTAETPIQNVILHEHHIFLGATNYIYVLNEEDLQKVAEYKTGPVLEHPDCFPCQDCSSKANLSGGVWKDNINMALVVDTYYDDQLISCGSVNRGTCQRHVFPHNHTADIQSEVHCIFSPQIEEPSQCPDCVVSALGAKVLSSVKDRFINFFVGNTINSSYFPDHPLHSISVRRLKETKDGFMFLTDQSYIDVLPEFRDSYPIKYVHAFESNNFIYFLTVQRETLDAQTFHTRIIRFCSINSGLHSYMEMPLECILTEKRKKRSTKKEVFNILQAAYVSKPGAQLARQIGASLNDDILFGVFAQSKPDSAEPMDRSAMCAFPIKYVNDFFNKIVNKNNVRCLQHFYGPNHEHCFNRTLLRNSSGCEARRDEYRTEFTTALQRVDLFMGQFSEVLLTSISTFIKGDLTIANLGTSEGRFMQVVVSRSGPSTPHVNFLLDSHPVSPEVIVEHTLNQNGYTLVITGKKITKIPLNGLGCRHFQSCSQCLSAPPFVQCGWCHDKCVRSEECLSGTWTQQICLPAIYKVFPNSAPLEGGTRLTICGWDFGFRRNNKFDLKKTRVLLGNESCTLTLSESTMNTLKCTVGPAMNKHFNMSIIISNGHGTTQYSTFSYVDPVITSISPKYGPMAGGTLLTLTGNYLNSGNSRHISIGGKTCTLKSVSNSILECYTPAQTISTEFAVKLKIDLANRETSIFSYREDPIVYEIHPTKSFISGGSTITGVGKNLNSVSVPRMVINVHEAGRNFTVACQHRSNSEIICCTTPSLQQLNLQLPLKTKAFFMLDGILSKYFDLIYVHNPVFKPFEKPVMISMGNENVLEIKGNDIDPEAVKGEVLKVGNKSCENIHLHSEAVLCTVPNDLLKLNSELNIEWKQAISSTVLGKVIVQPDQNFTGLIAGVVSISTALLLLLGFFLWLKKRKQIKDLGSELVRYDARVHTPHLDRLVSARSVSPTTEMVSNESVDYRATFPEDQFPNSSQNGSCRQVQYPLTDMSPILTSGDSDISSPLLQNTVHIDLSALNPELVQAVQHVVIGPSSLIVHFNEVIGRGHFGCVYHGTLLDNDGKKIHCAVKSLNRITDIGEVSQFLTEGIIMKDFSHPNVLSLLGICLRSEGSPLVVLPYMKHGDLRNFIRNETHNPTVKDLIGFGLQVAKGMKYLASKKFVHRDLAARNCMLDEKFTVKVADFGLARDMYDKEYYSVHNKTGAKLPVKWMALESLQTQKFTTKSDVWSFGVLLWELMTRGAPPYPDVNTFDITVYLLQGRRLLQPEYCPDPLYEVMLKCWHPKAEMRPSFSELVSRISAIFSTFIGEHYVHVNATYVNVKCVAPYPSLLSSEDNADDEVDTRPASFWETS

Structure (SMILES)	IC50 [1] [nM]	IC50 [2] [nM]
Cc1nn(-c2ccccc2)c(C)c1C(=O)Nc1ccc(Oc2ccnc(N)c2Cl)c(F)c1 [Example 4, N-(4-((2-amino-3-chloropyridin-4-yl)oxy)-3-fluorophenyl)-3,5-dimethyl-1-phenyl-1H-pyrazole-4-carboxamide]	> 5000	50 to 500
Nc1nccc(Oc2ccc(NC(=O)c3cnn(-c4ccccc4)c3C(F)F)cc2F)c1Cl [Example 6, N-(4-((2-amino-3-chloropyridin-4-yl)oxy)-3-fluorophenyl)-5-(difluoromethyl)-1-phenyl-1H-pyrazole-4-carboxamide]	> 5000	50 to 500
Nc1nccc(Oc2ccc(NC(=O)c3cnn(-c4ccccc4)c3)cc2F)c1Cl [Example 7, N-(4-((2-amino-3-chloropyridin-4-yl)oxy)-3-fluorophenyl)-1-phenyl-1H-pyrazole-4-carboxamide]	> 5000	500 to 5000
Cn1ncc(C(=O)Nc2ccc(Oc3ccnc(N)c3Cl)c(F)c2)c1C(F)F [Example 9, N-(4-((2-amino-3-chloropyridin-4-yl)oxy)-3-fluorophenyl)-5-(difluoromethyl)-1-methyl-1H-pyrazole-4-carboxamide]	> 5000	500 to 5000
Nc1nccc(Oc2ccc(NC(=O)c3cnn(-c4ccccc4)c3N)cc2F)c1Cl [Example 10, 5-amino-N-(4-((2-amino-3-chloropyridin-4-yl)oxy)-3-fluorophenyl)-1-phenyl-1H-pyrazole-4-carboxamide]	> 5000	500 to 5000
Nc1nccc(Oc2ccc(NC(=O)c3cnn(-c4ccc(F)cc4)c3C(F)(F)F)cc2F)c1Cl [Example 11, N-(4-((2-amino-3-chloropyridin-4-yl)oxy)-3-fluorophenyl)-1-(4-fluorophenyl)-5-(trifluoromethyl)-1H-pyrazole-4-carboxamide]	> 5000	500 to 5000
COc1ccccc1-n1ncc(C(=O)Nc2ccc(Oc3ccnc(N)c3Cl)c(F)c2)c1C(F)(F)F [Example 16, N-(4-((2-amino-3-chloropyridin-4-yl)oxy)-3-fluorophenyl)-1-(2-methoxyphenyl)-5-(trifluoromethyl)-1H-pyrazole-4-carboxamide]	> 5000	50 to 500
Nc1nccc(Oc2ccc(NC(=O)c3cnn(-c4ccccc4)c3Cl)cc2F)c1Cl [Example 18, N-(4-((2-amino-3-chloropyridin-4-yl)oxy)-3-fluorophenyl)-5-chloro-1-phenyl-1H-pyrazole-4-carboxamide]	500 to 5000	50 to 500
Nc1nccc(Oc2ccc(NC(=O)c3cnn(-c4ccccc4)c3-c3ccccc3)cc2F)c1Cl [Example 19, N-(4-((2-amino-3-chloropyridin-4-yl)oxy)-3-fluorophenyl)-1,5-diphenyl-1H-pyrazole-4-carboxamide]	500 to 5000	50 to 500
Nc1nccc(Oc2ccc(NC(=O)c3cnn(-c4ccccc4)c3F)cc2F)c1Cl [Example 20, N-(4-((2-amino-3-chloropyridin-4-yl)oxy)-3-fluorophenyl)-5-fluoro-1-phenyl-1H-pyrazole-4-carboxamide]	> 5000	50 to 500
C=CC(=O)Nc1nccc(Oc2ccc(NC(=O)c3ncn(-c4ccccc4)c3C(F)(F)F)cc2F)c1Cl [Example 21]	> 5000	50 to 500
C=CC(=O)N(C(=O)C=C)c1nccc(Oc2ccc(NC(=O)c3ncn(-c4ccccc4)c3C(F)(F)F)cc2F)c1Cl [Example 22]	> 5000	50 to 500
O=C(Nc1ccc(Oc2ccnc(NC(=O)C3CC3)c2Cl)c(F)c1)c1ncn(-c2ccccc2)c1C(F)(F)F [Example 23]	> 5000	50 to 500
O=C(Nc1ccc(Oc2ccnc(Cl)c2)c(F)c1)c1ncn(-c2ccccc2)c1C(F)(F)F [Example 24]	> 5000	> 5000

Other lines, results leading:

IC50 [1] [nM]	IC50 [2] [nM]	Structure (SMILES)
500 to 5000	< 50	Nc1nccc(Oc2ccc(NC(=O)c3ncn(-c4ccccc4)c3C(F)(F)F)cc2F)c1Cl [Example 1, N-(4-((2-amino-3-chloropyridin-4-yl)oxy)-3-fluorophenyl)-1-phenyl-5-(trifluoromethyl)-1H-imidazole-4-carboxamide]
500 to 5000	< 50	Nc1nccc(Oc2ccc(NC(=O)c3cnn(-c4ccccc4)c3C(F)(F)F)cc2F)c1Cl [Example 2, N-(4-((2-amino-3-chloropyridin-4-yl)oxy)-3-fluorophenyl)-1-phenyl-5-(trifluoromethyl)-1H-pyrazole-4-carboxamide]
50 to 500	50 to 500	Cc1c(C(=O)Nc2ccc(Oc3ccnc(N)c3Cl)c(F)c2)cnn1-c1ccccc1 [Example 3, N-(4-((2-amino-3-chloropyridin-4-yl)oxy)-3-fluorophenyl)-5-methyl-1-phenyl-1H-pyrazole-4-carboxamide]
500 to 5000	50 to 500	CCc1c(C(=O)Nc2ccc(Oc3ccnc(N)c3Cl)c(F)c2)cnn1-c1ccccc1 [Example 5, N-(4-((2-amino-3-chloropyridin-4-yl)oxy)-3-fluorophenyl)-5-ethyl-1-phenyl-1H-pyrazole-4-carboxamide]
500 to 5000	50 to 500	Nc1nccc(Oc2ccc(NC(=O)c3cnn(C4CCCOC4)c3C(F)(F)F)cc2F)c1Cl (stereo not drawn) [Example 8, N-(4-((2-amino-3-chloropyridin-4-yl)oxy)-3-fluorophenyl)-1-(tetrahydro-2H-pyran-3-yl)-5-(trifluoromethyl)-1H-pyrazole-4-carboxamide]
500 to 5000	50 to 500	Nc1nccc(Oc2ccc(NC(=O)c3cnn(-c4ccccc4F)c3C(F)(F)F)cc2F)c1Cl [Example 12, N-(4-((2-amino-3-chloropyridin-4-yl)oxy)-3-fluorophenyl)-1-(2-fluorophenyl)-5-(trifluoromethyl)-1H-pyrazole-4-carboxamide]
500 to 5000	500 to 5000	Nc1nccc(Oc2ccc(NC(=O)c3cnn(Cc4ccccc4)c3C(F)(F)F)cc2F)c1Cl [Example 13, N-(4-((2-amino-3-chloropyridin-4-yl)oxy)-3-fluorophenyl)-1-benzyl-5-(trifluoromethyl)-1H-pyrazole-4-carboxamide]
500 to 5000	50 to 500	Cc1nc(C(=O)Nc2ccc(Oc3ccnc(N)c3Cl)c(F)c2)c(C)n1-c1ccccc1 [Example 14, N-(4-((2-amino-3-chloropyridin-4-yl)oxy)-3-fluorophenyl)-2,5-dimethyl-1-phenyl-1H-imidazole-4-carboxamide]
500 to 5000	> 5000	Cc1ccc(-n2ncc(C(=O)Nc3ccc(Oc4ccnc(N)c4Cl)c(F)c3)c2C(F)(F)F)cc1 [Example 15, N-(4-((2-amino-3-chloropyridin-4-yl)oxy)-3-fluorophenyl)-1-(p-tolyl)-5-(trifluoromethyl)-1H-pyrazole-4-carboxamide]
500 to 5000	50 to 500	CC(C)(C)n1ncc(C(=O)Nc2ccc(Oc3ccnc(N)c3Cl)c(F)c2)c1C(F)(F)F [Example 17, N-(4-((2-amino-3-chloropyridin-4-yl)oxy)-3-fluorophenyl)-1-(tert-butyl)-5-(trifluoromethyl)-1H-pyrazole-4-carboxamide]
